In publication PMC12524617, “Recombinant Production and Characterization of a Novel α-L-Fucosidase from Bifidobacterium castoris” (International Journal of Molecular Sciences, 2025):

Target: T1, commercial T. maritima α-L-fucosidase (Thermotoga maritima, UniProt Q9WYE2)
T1 construct: gene TM_0306; commercial enzyme from Megazyme
T1 sequence (Q9WYE2 1-449): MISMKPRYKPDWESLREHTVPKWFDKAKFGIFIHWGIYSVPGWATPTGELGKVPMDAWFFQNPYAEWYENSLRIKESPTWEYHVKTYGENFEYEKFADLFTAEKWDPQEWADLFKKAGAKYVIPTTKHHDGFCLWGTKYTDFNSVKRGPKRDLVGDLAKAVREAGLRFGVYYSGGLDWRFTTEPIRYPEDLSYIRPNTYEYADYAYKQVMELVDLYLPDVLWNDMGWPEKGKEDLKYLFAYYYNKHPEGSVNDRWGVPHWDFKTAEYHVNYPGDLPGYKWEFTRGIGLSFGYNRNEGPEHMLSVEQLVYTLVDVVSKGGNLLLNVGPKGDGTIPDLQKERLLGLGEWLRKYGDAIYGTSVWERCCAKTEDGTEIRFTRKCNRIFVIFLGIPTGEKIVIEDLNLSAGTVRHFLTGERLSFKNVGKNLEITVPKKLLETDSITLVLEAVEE
Experiment: p-nitrophenolate release, absorbance at […] nm
Type: biochemical
Settings: positive control enzyme, 1 μg, same conditions, pH 3.0-8.0, 24-42 °C; activity only in figure

## C[C@@H]1O[C@@H](Oc2ccc([N+](=O)[O-])cc2)[C@@H](O)[C@H](O)[C@@H]1O [pNP-Fuc, 4-Nitrophenyl-α-L-fucopyranoside]
  p-nitrophenolate release, absorbance at 405 nm: -derived α-L-fucosidase was used as a positive control under the same conditions
